This note sets out measurements from the METLIN SMRT retention time set (Domingo-Almenara et al. 2019).

The data set in a line: gradient 5% acetonitrile 3 min, to 50% in 2 min, to 85% in 15 min, held 3 min, 100 µL/min. The note with it: column: Zorbax Extend-C18 2.1 x 50 mm; eluents: water / acetonitrile, 0.1% formic acid. The essentials:
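Each retention time is based on an adduct peak selected computationally and verified by manual inspection. Measurements used HPLC–quadrupole time-of-flight mass spectrometry in positive and negative ionization mode on mixtures of ~100 pure standards. Chromatography ran on a Zorbax Extend-C18 column (2.1 × 50 mm, 1.8 μm) at 100 μL/min with water and acetonitrile, each containing 0.1% formic acid, and dead and dwell volumes of 40 μL and 900 μL.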
With `COc1ccccc1N1CCN(c2ncc(S(=O)(=O)c3ccccc3)c(N)n2)CC1`, the RP-LC retention time is 903 s.

`COc1ccccc1-c1nc(C2CCN(C(=O)c3cccc4[nH]ccc34)CC2)no1` yielded an RP-LC retention time of 652 s.

In turn, `CCCNS(=O)(=O)c1cc(-c2nnc(-c3ccc(OC)c(OC)c3)o2)ccc1C` had an RP-LC retention time of 901 s.

Turning to `Cc1cc(=O)n(CC(=O)N2CCN(c3ccc(-c4ccccn4)nn3)CC2)cn1`, the RP-LC retention time amounted to 531 s.

As for `COC(=O)c1sc2ccccc2c1NC(=O)c1cccc(OC)c1OC`, the RP-LC retention time worked out at 1020 s.

`Cn1c(=O)sc2cc(S(=O)(=O)N3CCC(C(=O)N4CCOCC4)CC3)ccc21`: the RP-LC retention time was determined as 663 s.

Turning to `C=Cc1ccc(Cn2nc3c(S(=O)(=O)N4CCCCCC4)cccn3c2=O)cc1`, the RP-LC retention time worked out at 999 s.

In turn, `COc1ccc([N+](=O)[O-])cc1NC(=O)Cc1cccc2ccccc12` returned an RP-LC retention time of 967 s.

On to `COc1cccc(CNC(=O)CCNc2cnc3cnccn23)c1`, for which the RP-LC retention time was found to be 585 s.

In turn, `COC(=O)c1ccc(C(=O)OC)c(=O)[nH]1` came in with an RP-LC retention time of 638 s.

`CCOC(=O)COc1cc(-c2ccccc2)nc2ccc(NC(=O)C3CC3)cc12` had an RP-LC retention time of 738 s.

In turn, `O=C(CCc1nc(-c2ccc(N3CCCC3)cc2)no1)Nc1ccc2c(c1)OCCO2` had an RP-LC retention time of 1010 s.

With `CCc1cc(C(=O)Cc2nc3ccccc3n2C)c(O)cc1O`, the RP-LC retention time is 587 s.

Compound `COc1ccc2[nH]c(C(=O)N[C@@H](C)C(=O)NCCc3c[nH]c4ccccc34)cc2c1OC` showed an RP-LC retention time of 769 s.

Consider `CCn1cc(CCNS(=O)(=O)c2ccc(C)cc2)c2cccnc21`, for which the RP-LC retention time is 786 s.

In the case of `Cc1oc(C2CCN(C(=O)Nc3ccc4c(c3)OCCO4)CC2)nc1C(=O)N(C)C`, the RP-LC retention time stood at 675 s.

With `COc1ccc(C(=O)c2c(N)c(C#N)c3ccccn23)cc1`, the RP-LC retention time is 777 s.

In the case of `COC[C@@H]1CN(c2cnccn2)C[C@H]1C(=O)NC(C)C`, the RP-LC retention time amounted to 572 s.

On to `CC(C)(C)c1nnc(NC(=O)C2CCN(C(=O)c3cccc(F)c3)CC2)s1`, for which the RP-LC retention time was 765 s.

`CCc1ccc(S(=O)(=O)c2ccccc2)cc1S(=O)(=O)NCCCN(C)C` displayed an RP-LC retention time of 687 s.

`COc1ccc(S(=O)(=O)N2CCCC(C(=O)Nc3ccc(C(N)=O)cc3)C2)cc1OC` (stereo not given): the RP-LC retention time came out at 682 s.

`CCN1C(=O)C2CC3(CCN(C(=O)CC(C)C)CC3)CN2C1=O` (stereo not given) gave an RP-LC retention time of 692 s.

In turn, `CCOC(=O)c1nc(Nc2ccc(C)cc2Cl)c2ccccc2n1` gave an RP-LC retention time of 929 s.

`O=C(C1CCCN(c2ncc(-c3cccc(F)c3)cn2)C1)N1CCC(N2CCCCC2)CC1` (stereo not given): the RP-LC retention time stood at 689 s.

On to `CCN(Cc1ccc(OC)cc1)Cc1cc(=O)n2ccc(C)cc2n1`, for which the RP-LC retention time was 619 s.

The compound `Cn1c(=O)sc2cc(S(=O)(=O)N3CCC(C(=O)Nc4cccc(C#N)c4)CC3)ccc21` came in with an RP-LC retention time of 860 s.

As to `Cc1ccc(Cn2cc(CCC(=O)N3CCC(C(N)=O)CC3)c3ccccc32)cc1`, the RP-LC retention time came out at 813 s.

On to `COc1ccccc1/C=C/C(=O)/C=C/c1ccccc1O`, for which the RP-LC retention time is 772 s.

In the case of `COc1cc(C(=O)N2CCCN(c3cc(-c4ccc(Br)cc4)[nH]n3)CC2)cc(OC)c1OC`, the RP-LC retention time was 768 s.

`Fc1ccc(-c2cc(CN3CCCC3)[nH]n2)cc1` returned an RP-LC retention time of 594 s.

For the compound `CCCN1C(=O)C(CC(=O)NCCN(C)C)Sc2ncccc21` (stereo not given), the RP-LC retention time was found to be 588 s.

For `O=c1n(Cc2ccc(Cl)cc2)nc2ccc(S(=O)(=O)N3CCCCCC3)cn12`, the RP-LC retention time stood at 1020 s.

The compound `Cc1nc(CCNC(=O)C2CCN(S(=O)(=O)c3ccc(Br)s3)CC2)cs1` registered an RP-LC retention time of 759 s.

As for `CCc1noc(C2(NC(=O)c3cccc(Cl)c3)CCCCC2)n1`, the RP-LC retention time came out at 1030 s.

`Cc1ccc(-n2nc(N3CCCC(C(=O)NCc4ccc(N(C)C)cc4)C3)ccc2=O)cc1Cl` (stereo not given) displayed an RP-LC retention time of 692 s.

As for `Cc1sc2ccn(CC(C)C)c(=O)c2c1C(=O)NCc1ccccc1F`, the RP-LC retention time was found to be 994 s.

`CCc1ccc(S(=O)(=O)N2CCN(Cc3nc4cc(C(C)(C)C)ccc4o3)CC2)cc1` registered an RP-LC retention time of 998 s.

`COCCCNC(=O)N1CCCC1c1ccccc1Cl` (stereo not given) came in with an RP-LC retention time of 797 s.

`O=C(NC1CCCC1)C(c1ccc(Cl)cc1)N1CCN(C(=O)c2ccco2)CC1` (stereo not given) displayed an RP-LC retention time of 954 s.

Compound `C=CCc1ccccc1OCC(O)CNC` (stereo not given) yielded an RP-LC retention time of 566 s.

The compound `CCN1c2ccc(C)cc2C(=O)NC12CCN(C(=O)c1ccc(Br)cc1)CC2` yielded an RP-LC retention time of 902 s.

Turning to `CC(Oc1ccccc1)c1nc(-c2ccc3c(c2)ncn3CCC(=O)N2CCCC2)no1` (stereo not given), the RP-LC retention time was 751 s.

As to `CCC(C)NC(=O)CSc1nc2nc(C)cc(C)n2n1` (stereo not given), the RP-LC retention time stood at 650 s.

The compound `COc1ccccc1-c1nnc(-c2ccc(OC)c(S(=O)(=O)N3CCOCC3)c2)o1` registered an RP-LC retention time of 781 s.

As to `CCc1nc2cc(-c3noc(Cc4ccccc4Br)n3)ccc2o1`, the RP-LC retention time amounted to 1220 s.

As to `CCCCn1cc(S(=O)(=O)Nc2ccc(C)cc2)c2cccnc21`, the RP-LC retention time is 943 s.

As for `Cc1ccc(S(=O)(=O)N2CCCC2C(=O)Nc2ccc(C)cc2C)cc1` (stereo not given), the RP-LC retention time came out at 969 s.

Consider `CSc1ccc(CN2CC(c3nc(C)no3)C2)cc1`, for which the RP-LC retention time stood at 530 s.

`CCOC(=O)c1cn(-c2c(F)c(F)c(C#N)c(F)c2F)c2c(F)c(F)c(F)cc2c1=O` came in with an RP-LC retention time of 981 s.

The compound `COc1ccccc1CCC(=O)N1CCc2cc(-c3csc(C)n3)ccc21` had an RP-LC retention time of 1090 s.

Compound `CN(C)C[C@@H]1CN(C2CCOCC2)C[C@H]1NC(=O)C1(c2ccccc2)CC1` came in with an RP-LC retention time of 556 s.

In the case of `CCN(Cc1ccccc1)c1ccc(-c2noc(CN3CCN(C)CC3)n2)cn1`, the RP-LC retention time amounted to 670 s.

The compound `CCc1ccc(CNC(=O)C2CCN(Cc3cn(C)c4ccc(Cl)cc34)CC2)cc1` came in with an RP-LC retention time of 793 s.

Turning to `COc1cccc(CN2CCC3(CC2)CC(O)CCO3)n1` (stereo not given), the RP-LC retention time turned out to be 572 s.

`CCOc1ccc(-c2ccc(=O)n(Cc3nc(-c4ccccc4C)no3)n2)cc1` yielded an RP-LC retention time of 1040 s.

As to `COc1ccc(OC)c(CNC(=O)C2(CCO)CCN(c3ncccn3)C2)c1` (stereo not given), the RP-LC retention time was 618 s.

In the case of `Clc1ccc(-c2ccc(CNCC3CCCO3)o2)cc1` (stereo not given), the RP-LC retention time turned out to be 688 s.

`CCOc1ccc(-c2cc3c(=O)n(Cc4nc(-c5cccc(C(F)(F)F)c5)no4)ncn3n2)cc1` came in with an RP-LC retention time of 1250 s.

For the compound `CN1C(=O)c2cc(S(=O)(=O)NCc3ccccc3Cl)ccc2Oc2cccnc21`, the RP-LC retention time amounted to 903 s.

Consider `Fc1ccc(OCc2cn(C3CN(Cc4ccc(F)cc4F)C3)nn2)cc1`, for which the RP-LC retention time was found to be 703 s.

The compound `CCc1noc(NC(C)=O)c1-c1ccc(OC)c(S(=O)(=O)Nc2ccc(C)cc2Cl)c1` gave an RP-LC retention time of 894 s.

In turn, `CCc1ccc2nc(Nc3ncc4c(n3)CCCC4=O)nc(C)c2c1` returned an RP-LC retention time of 650 s.

The compound `CC(Oc1ccc(=O)n(-c2ccc(F)cc2)n1)C(=O)Nc1ccccc1F` (stereo not given) displayed an RP-LC retention time of 772 s.

`O=C(NCC1CCN(C(=O)Oc2ccccc2)CC1)C(=O)Nc1cccnc1` gave an RP-LC retention time of 610 s.

For `Cc1cc(N2CCN(C(=O)c3ccc(F)cc3Cl)CC2)nc(N2CCOCC2)n1`, the RP-LC retention time is 637 s.

`Cc1ccccc1CC(=O)N1CCCC(COc2cccc(C(=O)NC3CC3)c2)C1` (stereo not given): the RP-LC retention time was 861 s.

For `O=C(Nc1nc(C(=O)N2CCN(C(=O)c3ccco3)CC2)co1)c1ccsc1`, the RP-LC retention time amounted to 656 s.

For `Cc1ccnc(N2CCCC(C(=O)NCCN3CCN(c4ccccc4F)CC3)C2)n1` (stereo not given), the RP-LC retention time amounted to 614 s.

Regarding `COc1ccccc1-c1nnc(SCC(=O)N2CCc3ccccc32)o1`, the RP-LC retention time came to 839 s.

As to `Cc1cc(C)cc(NC(=O)CSc2cc(N3CCCCC3)ncn2)c1`, the RP-LC retention time is 990 s.

As for `CCOC(=O)Cc1c(C)nc2c(-c3ccccc3)c(C)nn2c1C`, the RP-LC retention time was found to be 1080 s.

Compound `COC(=O)c1ccc2c(=O)n(Cc3ccc(F)cc3)c(N3CCN(c4ccccn4)CC3)nc2c1` returned an RP-LC retention time of 772 s.

Compound `CC(C)CCNC(=O)C1(C)CN(S(=O)(=O)c2ccccc2)CC(=O)N1c1ccc(Cl)cc1` (stereo not given) showed an RP-LC retention time of 992 s.

In the case of `CCn1nccc1C(=O)N1CCN(c2cc(-c3ccc(Cl)cc3)[nH]n2)CC1`, the RP-LC retention time came out at 781 s.

For the compound `Cc1cc(=O)n(CC(=O)NCCc2ccc(Cl)cc2)c(N2CCOCC2)n1`, the RP-LC retention time was found to be 701 s.

`CC1Cc2ccccc2N1C(=O)CCn1c(=O)sc2ccccc21` (stereo not given) returned an RP-LC retention time of 923 s.

`Cc1ccc(Cl)cc1NC(=O)CSc1cc(N2CCN(c3ccccc3F)CC2)ncn1` returned an RP-LC retention time of 1280 s.

The compound `Cc1ccc(S(=O)(=O)N2CCC(CC(=O)NCCN(C)Cc3ccccc3)CC2)cc1` gave an RP-LC retention time of 683 s.

Turning to `CCOC(=O)c1c(C)[nH]c(C(=O)N2CCCC(C(=O)NCCC(C)C)C2)c1C` (stereo not given), the RP-LC retention time was 798 s.

On to `COc1cccc(NC(=O)Cn2c(=O)c3cc(C4CC4)nn3c3ncccc32)c1`, for which the RP-LC retention time was 763 s.
